Data: US7709482B2, “Polycyclic heteroaryl substituted triazoles useful as Axl inhibitors” (Rigel Pharmaceuticals, Inc., priority 2006, dated 2010)

These molecules were tested against T1, Axl (Homo sapiens, UniProt P30530) (assay: Phospho-Akt In-Cell Western Assay (inhibition of Axl activity after Axl-antibody cross-linking)). Details: Hela cells, phospho-Akt chemiluminescence normalized to relative cell number; compounds of formula (Ib), Table 2; read-out: IC50.
T1 construct: endogenous in cells; host or cells: HeLa cells
T1 sequence (P30530 26-894): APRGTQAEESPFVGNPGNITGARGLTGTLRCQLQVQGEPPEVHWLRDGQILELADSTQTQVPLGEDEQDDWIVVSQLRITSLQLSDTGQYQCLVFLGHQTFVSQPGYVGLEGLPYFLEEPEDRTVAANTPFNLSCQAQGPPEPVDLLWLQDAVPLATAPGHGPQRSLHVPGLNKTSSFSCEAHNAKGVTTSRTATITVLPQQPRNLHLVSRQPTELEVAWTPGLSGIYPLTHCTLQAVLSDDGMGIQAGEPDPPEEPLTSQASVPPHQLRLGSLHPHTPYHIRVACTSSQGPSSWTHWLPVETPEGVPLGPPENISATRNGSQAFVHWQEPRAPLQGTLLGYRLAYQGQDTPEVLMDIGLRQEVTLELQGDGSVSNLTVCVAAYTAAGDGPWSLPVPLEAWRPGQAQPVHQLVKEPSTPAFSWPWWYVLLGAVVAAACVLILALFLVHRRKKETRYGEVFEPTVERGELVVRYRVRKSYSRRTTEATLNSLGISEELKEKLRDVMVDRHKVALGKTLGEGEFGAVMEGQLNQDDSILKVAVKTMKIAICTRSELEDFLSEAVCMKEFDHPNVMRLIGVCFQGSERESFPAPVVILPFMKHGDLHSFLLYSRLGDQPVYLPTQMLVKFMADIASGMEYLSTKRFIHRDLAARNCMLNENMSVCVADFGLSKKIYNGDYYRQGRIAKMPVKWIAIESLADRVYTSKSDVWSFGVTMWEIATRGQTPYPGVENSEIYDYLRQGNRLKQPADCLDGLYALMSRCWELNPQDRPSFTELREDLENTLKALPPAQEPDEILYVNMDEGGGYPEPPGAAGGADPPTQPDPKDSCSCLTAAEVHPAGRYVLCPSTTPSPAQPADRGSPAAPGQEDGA
Type: cell-based
Procedure, shortened: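 Phospho-Akt was detected in formaldehyde-fixed cells by in-cell immunostaining with HRP chemiluminescence. Before fixation, HeLa cells kept 24 h in low-serum medium containing 500 ng/mL Axl/Fc received compound for 1 h at 37 °C, followed by 5-min Axl activation through antibody clustering.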

| SMILES | IC50 [µM] |
| --- | --- |
| CN(C1CCc2ccc(Nc3nc(N)nn3-c3cc4c(nn3)-c3ccccc3CCC4)cc2CC1)C1CC2CCC1C2 (stereo not shown) [Compound 161, 1-(6,7-dihydro-5H-benzo[6,7]cyclohepta[1,2-c]pyridazin-3-yl)-N^5-(7-((bicyclo[2.2.1]heptan-2-yl)(methyl)amino)-6,7,8,9-tetrahydro-5H-benzo[7]annulene-2-yl)-1H-1,2,4-triazole-3,5-diamine] | 1 to 10 |
| CN1CCN(c2ccc(Nc3nc(N)nn3-c3cc4c(nn3)-c3ccccc3N(C)CC4)cc2)CC1 [Compound 162, 1-(7-methyl-6,7-dihydro-5H-benzo[2,3]azepino[4,5-c]pyridazin-3-yl)-N^5-(4-(N-methylpiperazin-1-yl)phenyl)-1H-1,2,4-triazole-3,5-diamine] | > 20 |
| Nc1nc(Nc2ccc(CC3C(=O)Nc4ccc(F)cc43)cc2)n(-c2cc3c(nn2)-c2ccccc2CCC3)n1 (stereo not shown) [Compound 163, 1-(6,7-dihydro-5H-benzo[6,7]cyclohepta[1,2-c]pyridazin-3-yl)-N^5-(4-((5-fluoroindolin-2-on-3-yl)methyl)phenyl)-1H-1,2,4-triazole-3,5-diamine] | > 20 |
| Nc1nc(Nc2ccc(N3CCC(N4CCCC4)CC3)cc2)n(-c2cc3c(nn2)-c2ccccc2CCC3)n1 [Compound 164, 1-(6,7-dihydro-5H-benzo[6,7]cyclohepta[1,2-c]pyridazin-3-yl)-N^5-(4-(4-pyrrolidin-1-ylpiperidinyl)phenyl)-1H-1,2,4-triazole-3,5-diamine] | 1 to 10 |
| Nc1nc(Nc2ccc(CN3CCC(N4CCCC4)CC3)cc2)n(-c2cc3c(nn2)-c2ccccc2CCC3)n1 [Compound 165, 1-(6,7-dihydro-5H-benzo[6,7]cyclohepta[1,2-c]pyridazin-3-yl)-N^5-(4-((4-pyrrolidin-1-ylpiperidinyl)methyl)phenyl)-1H-1,2,4-triazole-3,5-diamine] | < 1 |
| Nc1nc(Nc2ccc(CN3CCN(C4CCCC4)CC3)cc2)n(-c2cc3c(nn2)-c2ccccc2CCC3)n1 [Compound 166, 1-(6,7-dihydro-5H-benzo[6,7]cyclohepta[1,2-c]pyridazin-3-yl)-N^5-(4-((4-cyclopentylpiperazinyl)methyl)phenyl)-1H-1,2,4-triazole-3,5-diamine] | 1 to 10 |
| CC(C)N1CCN(Cc2ccc(Nc3nc(N)nn3-c3cc4c(nn3)-c3ccccc3CCC4)cc2)CC1 [Compound 167, 1-(6,7-dihydro-5H-benzo[6,7]cyclohepta[1,2-c]pyridazin-3-yl)-N^5-(4-((4-isopropylpiperazinyl)methyl)phenyl)-1H-1,2,4-triazole-3,5-diamine] | 1 to 10 |
| CN1CCC(N2CCN(c3ccc(Nc4nc(N)nn4-c4cc5c(nn4)-c4ccccc4CCC5)cc3F)CC2)CC1 [Compound 168, 1-(6,7-dihydro-5H-benzo[6,7]cyclohepta[1,2-c]pyridazin-3-yl)-N^5-(3-fluoro-4-(4-N-methylpiperid-4-ylpiperazinyl)phenyl)-1H-1,2,4-triazole-3,5-diamine] | 1 to 10 |
| CN1CCC2(CCN(c3ccc(Nc4nc(N)nn4-c4cc5c(nn4)-c4ccccc4CCC5)cc3F)C2)C1 (stereo not shown) [Compound 169, 1-(6,7-dihydro-5H-benzo[6,7]cyclohepta[1,2-c]pyridazin-3-yl)-N^5-(3-fluoro-4-(7-methyl-2,7-diazaspiro[4.4]nonan-2-yl)phenyl)-1H-1,2,4-triazole-3,5-diamine] | 1 to 10 |
| Nc1nc(Nc2ccc(N3CC(N4CCCC4)C3)c(F)c2)n(-c2cc3c(nn2)-c2ccccc2CCC3)n1 [Compound 170, 1-(6,7-dihydro-5H-benzo[6,7]cyclohepta[1,2-c]pyridazin-3-yl)-N^5-(3-fluoro-4-(3-pyrrolidin-1-ylazetidinyl)phenyl)-1H-1,2,4-triazole-3,5-diamine] | 1 to 10 |
| Cc1cc(Nc2nc(N)nn2-c2cc3c(nn2)-c2ccccc2CCC3)ccc1N1CCC(N2CCN(C)CC2)CC1 [Compound 171, 1-(6,7-dihydro-5H-benzo[6,7]cyclohepta[1,2-c]pyridazin-3-yl)-N^5-(3-methyl-4-(4-(N-methylpiperazin-4-yl)piperidin-1-yl)phenyl)-1H-1,2,4-triazole-3,5-diamine] | > 20 |
| Nc1nc(Nc2ccc(N3CCC(N4CCCC4)CC3)cc2)n(-c2cc3c(nn2)-c2ccccc2SCC3)n1 [Compound 172, 1-(6,7-dihydro-5H-benzo[2,3]thiepino[4,5-c]pyridazin-3-yl)-N^5-(4-(4-pyrrolidin-1-ylpiperidinyl)phenyl)-1H-1,2,4-triazole-3,5-diamine] | > 20 |
| Cc1cc(Nc2nc(N)nn2-c2cc3c(nn2)-c2ccccc2CCC3)cnc1N1CCC(N2CCCC2)CC1 [Compound 173, 1-(6,7-dihydro-5H-benzo[6,7]cyclohepta[1,2-c]pyridazin-3-yl)-N^5-(6-(4-(pyrrolidin-1-yl)piperidin-1-yl)-5-methylpyridin-3-yl)-1H-1,2,4-triazole-3,5-diamine] | 1 to 10 |
| Nc1nc(Nc2ccc(N3CCC(N4CCCC4)C3)c(F)c2)n(-c2cc3c(nn2)-c2ccccc2CCC3)n1 (stereo not shown) [Compound 174, 1-(6,7-dihydro-5H-benzo[6,7]cyclohepta[1,2-c]pyridazin-3-yl)-N^5-(3-fluoro-(4-(3-pyrrolidin-1-yl)pyrrolidin-1-yl)phenyl)-1H-1,2,4-triazole-3,5-diamine] | 1 to 10 |

Same assay, conditions: inhibition of Axl activity; Table 1, compounds of formula (Ia); read-out: IC50

| SMILES | IC50 [µM] |
| --- | --- |
| CN1CCN(C2CCN(c3ccc(Nc4nc(N)n(-c5cc6c(nn5)-c5ccccc5OC65CCCC5)n4)cc3F)CC2)CC1 [Compound 175, 1-(spiro[chromeno[4,3-c]pyridazine-5,1′-cyclopentane]-3-yl)-N^3-(3-fluoro-4-(4-(4-methylpiperazin-1-yl)piperidin-1-yl)phenyl)-1H-1,2,4-triazole-3,5-diamine] | 10 to 20 |
| Nc1nc(Nc2ccc(N3CCC(N4CCCC4)CC3)c(F)c2)nn1-c1cc2c(nn1)-c1ccccc1OC21CCCC1 [Compound 176, 1-(spiro[chromeno[4,3-c]pyridazine-5,1′-cyclopentane]-3-yl)-N^3-(3-fluoro-4-(4-(pyrrolidin-1-yl)piperidin-1-yl)phenyl)-1H-1,2,4-triazole-3,5-diamine] | 1 to 10 |
| Nc1nc(Nc2ccc(N3CCC(N4CCCC4)CC3)c(F)c2)nn1-c1cc2c(nn1)-c1ccccc1CCC2 [Compound 177, 1-(6,7-dihydro-5H-benzo[6,7]cyclohepta[1,2-c]pyridazin-3-yl)-N^3-(3-fluoro-4-(4-pyrrolidin-1-ylpiperidin-1-yl)phenyl)-1H-1,2,4-triazole-3,5-diamine] | < 1 |
| Nc1nc(Nc2ccc(N3CCC(N4CCCC4)CC3)c(F)c2)nn1-c1cc2c(nn1)CCCc1ccccc1-2 [Compound 178, 1-(6,7-dihydro-5H-benzo[6,7]cyclohepta[4,5-c]pyridazin-2-yl)-N^3-(3-fluoro-4-(4-pyrrolidin-1-ylpiperidin-1-yl)phenyl)-1H-1,2,4-triazole-3,5-diamine] | < 1 |
| CN1CCN(C2CCN(c3ccc(Nc4nc(N)n(-c5cc6c(nn5)-c5ccccc5CCC6)n4)cc3F)CC2)CC1 [Compound 179, 1-(6,7-dihydro-5H-benzo[6,7]cyclohepta[1,2-c]pyridazin-3-yl)-N^3-(3-fluoro-4-(4-(4-methylpiperazin-1-yl)piperidin-1-yl)phenyl)-1H-1,2,4-triazole-3,5-diamine] | < 1 |
